This is an account of results in patent publication US10131652B2, “Pyrimidinyloxy benzene derivatives as herbicides” (E. I. DU PONT DE NEMOURS AND COMPANY, priority 2014, dated 2018).

Common to all, as to format: in vivo
Test [1] deals with large (Lg) crabgrass (Digitaria sanguinalis). The test is described as follows: Test B pre-/postemergence plant response. The conditions noted are these: Digitaria sanguinalis, 240 h, read-out: Plant response rating, Crabgrass, Large; for pest or weed control at 125 g/ha: 125 g ai/ha; for pest or weed control at 500 g/ha: 500 g ai/ha; for pest or weed control at 1000 g/ha: 1000 g ai/ha. In short, it runs like this:
(§1)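 Steps: plant seeds in loam soil–sand mix; spray soil preemergence, and in parallel spray 2–10 cm one- to two-leaf plants postemergence; hold ~10 days in greenhouse; visually rate injury against untreated controls (0 = no effect, 100 = complete control).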

The subject of test [2] is morningglory (Ipomoea spp.). The test is described as follows: Test B pre-/postemergence plant response. The conditions noted are these: Ipomoea, 240 h, read-out: Plant response rating, Morningglory; for pest or weed control at 125 g/ha: 125 g ai/ha; for pest or weed control at 500 g/ha: 500 g ai/ha; for pest or weed control at 1000 g/ha: 1000 g ai/ha. An outline of the steps:
as §1

Test [3] relates to velvetleaf (Abutilon theophrasti). The test is described as follows: Test B pre-/postemergence plant response. The conditions noted are these: Abutilon theophrasti, 240 h, read-out: Plant response rating, Velvetleaf; for pest or weed control at 125 g/ha: 125 g ai/ha; for pest or weed control at 500 g/ha: 500 g ai/ha; for pest or weed control at 1000 g/ha: 1000 g ai/ha. An outline of the steps: as §1

Test [4] concerns Italian ryegrass (Lolium multiflorum). Briefly: Test B pre-/postemergence plant response. In short, it runs like this: as §1
In a further test the test system is kochia (Kochia scoparia). Briefly: Test B pre-/postemergence plant response. An outline of the steps:
as §1

The test system of test [5] is ragweed (common ragweed, Ambrosia elatior). The test is described as follows: Test B pre-/postemergence plant response. In short, it runs like this: as §1
In test [6] the test system is blackgrass (Alopecurus myosuroides). Briefly: Test B postemergence plant response. An outline of the steps: (§2)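 Visual injury rating, 0–100 (0 = no effect, 100 = complete control), vs untreated controls ~10 days after postemergence spray; greenhouse; potted loam soil/sand; plants 2–10 cm, 1–2 leaf stage.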
Test [7] relates to galium (catchweed bedstraw, Galium aparine). The test is described as follows: Test B postemergence plant response. In short, it runs like this:
as §2

Setting [8] is: post-emergence, postemergence, 0 to 100 scale, 0 no effect, 100 complete control.
Setting [9] is: post-emergence, Postemergence, 0 to 100 scale (0 no effect, 100 complete control).
The mark [10] stands for this setting: pre-emergence, Preemergence, 0 to 100 scale where 0 is no effect and 100 is complete control.
The mark [11] stands for this setting: pre-emergence, Preemergence, 0 to 100 scale (0 no effect, 100 complete control).
Where [12] appears, read: 31 g ai/ha, Preemergence, 0 to 100 scale where 0 is no effect and 100 is complete control.
The mark [13] stands for this setting: 125 g ai/ha, postemergence, 0 to 100 scale, 0 no effect, 100 complete control.
[14] abbreviates: Postemergence, 31 g ai/ha, 0 to 100 scale (0 no effect, 100 complete control).
Where [15] appears, read: Preemergence, 125 g ai/ha, 0 to 100 scale (0 no effect, 100 complete control).

Read-outs that look alike come from different tables or passages of the source.

In the case of `FC(F)(F)Oc1ccc(-c2ccccc2Oc2ncc(Cl)cn2)cc1` [Compound 42, 5-chloro-2-[[4′-(trifluoromethoxy)[1,1′-biphenyl]-2-yl]oxy]pyrimidine], the pest or weed control at 125 g/ha is 30% in test [1] (setting [8]); 50% in test [1] (setting [10]); 20% in test [2] (setting [8]); 0% in test [2] (setting [10]); 100% in test [3] (setting [8]); 50% in test [3] (setting [10]). In addition, the pest or weed control at 500 g/ha in test [1] (setting [9]) was determined as 50%; in test [1] (setting [10]), 90%; in test [2] (setting [9]), 60%; in test [2] (setting [10]), 0%; in test [3] (setting [9]), 100%; in test [3] (setting [10]), 70%.
For `Clc1ccc(-c2c(Cl)cccc2Oc2ncc(Cl)cn2)nc1` [Compound 23, 5-chloro-2-[3-chloro-2-(5-chloro-2-pyridinyl)phenoxy]pyrimidine], the pest or weed control at 125 g/ha was 10% in test [1] (setting [8]); 40% in test [1] (setting [10]); 20% in test [2] (setting [8]); 0% in test [2] (setting [10]); 40% in test [3] (setting [8]); 10% in test [3] (setting [10]). Further, the pest or weed control at 500 g/ha turned out to be 50% in test [1] (setting [9]); 80% in test [1] (setting [11]); 40% in test [2] (setting [9]); 0% in test [2] (setting [11]); 70% in test [3] (setting [9]); 50% in test [3] (setting [11]). The pest or weed control at 1000 g/ha was 60% in test [1] (setting [9]); 100% in test [1] (setting [11]); 70% in test [2] (setting [9]); 0% in test [2] (setting [11]); 70% in test [3] (setting [9]); 80% in test [3] (setting [11]).
Regarding `FC(F)(F)c1nccc(-c2ccccc2Oc2ncc(Br)cn2)n1` [Compound 21, 4-[2-[(5-bromo-2-pyrimidinyl)oxy]phenyl]-2-(trifluoromethyl)pyrimidine], the pest or weed control at 125 g/ha in test [1] (setting [8]) was determined as 0%; in test [1] (setting [10]), 60%; in test [2] (setting [8]) it was 20%; in test [2] (setting [10]), 0%; in test [3] (setting [8]) it was 20%; in test [3] (setting [10]), 0%. For the same compound, the pest or weed control at 500 g/ha in test [1] (setting [9]) came to 30%; in test [1] (setting [11]), 100%; in test [2] (setting [9]) it was 90%; in test [2] (setting [11]), 0%; in test [3] (setting [9]), 40%; in test [3] (setting [11]), 20%.
For the compound `FC(F)(F)c1cc(-c2ccccc2Oc2ncc(Cl)cn2)on1` [Compound 63, 5-chloro-2-[2-[3-(trifluoromethyl)-5-isoxazolyl]phenoxy]pyrimidine], the pest or weed control at 125 g/ha in test [1] (setting [8]) was found to be 80%; in test [1] (setting [10]), 100%; in test [2] (setting [8]), 100%; in test [2] (setting [10]) it was 30%; in test [3] (setting [8]), 100%; in test [3] (setting [10]), 70%. The pest or weed control at 500 g/ha in test [1] (setting [9]) was found to be 90%; in test [1] (setting [10]), 100%; in test [2] (setting [9]), 100%; in test [2] (setting [10]) it was 60%; in test [3] (setting [9]), 100%; in test [3] (setting [10]), 90%.
On to `FCc1cc(-c2ccccc2Oc2ncc(Cl)cn2)no1` [Compound 32, 5-chloro-2-[2-[5-(fluoromethyl)-3-isoxazolyl]phenoxy]pyrimidine], for which the pest or weed control at 125 g/ha in test [1] (setting [8]) was 60%; in test [1] (setting [10]), 100%; in test [2] (setting [8]), 70%; in test [2] (setting [10]) it was 0%; in test [3] (setting [8]), 90%; in test [3] (setting [10]) it was 90%. For the same compound, the pest or weed control at 500 g/ha turned out to be 90% in test [1] (setting [9]); 100% in test [1] (setting [10]); 90% in test [2] (setting [9]); 30% in test [2] (setting [10]); 100% in test [3] (setting [9]); 100% in test [3] (setting [10]).
Turning to `FC(F)(F)c1ccnc(-c2ccccc2Oc2ncc(Cl)cn2)c1` [Compound 25, 5-chloro-2-[2-[4-(trifluoromethyl)-2-pyridinyl]phenoxy]pyrimidine], the pest or weed control at 125 g/ha came to 10% in test [1] (setting [8]); 50% in test [1] (setting [10]); 10% in test [2] (setting [8]); 0% in test [2] (setting [10]); 20% in test [3] (setting [8]); 10% in test [3] (setting [10]). Also, the pest or weed control at 500 g/ha in test [1] (setting [9]) turned out to be 50%; in test [1] (setting [10]) it was 100%; in test [2] (setting [9]), 70%; in test [2] (setting [10]), 10%; in test [3] (setting [9]), 80%; in test [3] (setting [10]), 100%.
Consider `FC(F)(Br)c1cc(-c2ccccc2Oc2ncc(Cl)cn2)no1` [Compound 162], for which the “Plant response rating, Ryegrass, Italian” value in test [4] (setting [12]) stood at 0; in test [4] (setting [13]), 50; in test [4] (setting [14]), 0. Further, the “Ryegrass, Italian plant response rating” value in test [4] (setting [15]) came to 40. Further, the “Plant response rating, Kochia” value with kochia (Kochia scoparia) (setting [12]) is 70; with kochia (Kochia scoparia) (setting [13]), 100; in the test on kochia (Kochia scoparia) (setting [14]), 90. The “Kochia plant response rating” value in the test with kochia (Kochia scoparia) (setting [15]) came to 70. The “Plant response rating, Ragweed” value in test [5] (setting [12]) came to 0; in test [5] (setting [13]) it was 40; in test [5] (setting [14]), 0. In addition, the “Ragweed plant response rating” value in test [5] (setting [15]) is 20. For the same compound, the “Plant response rating, Blackgrass” value in test [6] (setting [13]) and in test [6] (setting [14]) was 30 throughout. The “Plant response rating, Galium” value in test [7] (setting [13]) and in test [7] (setting [14]) was 90 each time.
